Literature values as cited in patent publication US20160128954A1 (Raptor Pharmaceuticals Inc., priority 2014, published 2016).

Columns and labels:
[1] = in vivo
[2] = system: mice with the gene mutation for Huntington's disease (HD); details: mouse, in vivo
[3] = system: HD patients; details: five patients over 2 weeks
[4] = system: circulating white blood cells

Structure (SMILES) | crossing of the blood-brain barrier [1] | effect on tremors and life span [2] | efficacy in HD [3] | time to decrease in leukocyte cystine ([4]; delivery into the small intestine (WO 2007/089670)) | depletion of intracellular cystine ([4]; taken regularly, measured in circulating white blood cells)
NCCSSCCN [cystamine, Cystamine] | does not, or corsses less efficiently than cysteamine | alleviate tremors and prolong life | – | – | –
NCCS [cysteamine, Cysteamine (HS—CH2—CH2—NH2)] | crosses the blood-brain barrier | – | no efficacy | within an hour | up to 90%
